Structures are written as SMILES. Some results are limits rather than exact numbers.

The text below walks through data of patent US8313901B2, “Methods and compositions related to the modulation of riboswitches” (Yale University, priority 2005, dated 2012).

Assay [1] concerns glmS ribozyme. Nature of the assay: High-throughput FRET fluorescence screen of substrate cleavage by bimolecular glmS ribozyme (Example 1, Method 1). The assay is classed as biochemical. The following applies: for Fl21 h/Flg h: fluorescence ratio, high-throughput fluorescence screen, 21 h. The protocol: The naturally occurring glmS RNA element catalyzes self-cleavage in the presence of modest concentrations (>100 μM) of glucosamine-6-phosphate (Gln6P, FIG. 1A). In the absence of this important metabolite, no cleavage activity is observed. Although the natural sequence of the glmS element forms a unimolecular cis-cleaving ribozyme, active glmS ribozyme can also be constructed as a biomolecular […] ribozyme. In this format, the cleaved strand, termed the substrate, includes the 5′ base pairs that form half of the pairing element 1 (P1) and the conserved nucleotides upstream P1 (FIG. 1B). The non-cleaved ribozyme strand includes the 3′ half of P1 and the remaining sequence of the glmS element. Using this biomolecular format, the 16-nucleotide substrate strand was labeled at the 3′ and the 5′ ends with the fluorescently probes fluorescein (F1) and cy3, respectively. In an uncleaved substrate RNA, emission of the excited state fluorescein is quenched by the enforced proximity of the cy3 quencher. Upon cleavage in the presence of the Gln6P system, the binding of Gln6P (or related derivatives) to the glmS riboswitch can be rapidly screened using standard high-throughput techniques.
After a minimum of 10 hours incubation, the fluorescence intensity of FI increased ˜4 fold in the presence of 160 μM glucosamine-6-phosphate, whereas no observable change was detected in the absence of effector (FIG. 2). […] To further explore the discriminatory limits of this detection system, a library of sixteen Gln6P derivatives was also screened. The resulting glmS binding activities correspond well with the binding activities independently determined by gel electrophoresis methods (Table 1). Detection systems are also being used to screen a novel library of 20,000 compounds (Microsource Discovery Systems, Inc.) unrelated to Gln6P for binding the glmS ribozyme.

Assay [2] concerns glmS ribozyme. The assay is described as follows: Electrophoretic in-line probing of analog binding to glmS ribozyme.
The target of assay [3] is ribD RNA. Particulars: cited from earlier work.
The subject of assay [4] is bimolecular glmS ribozyme. The assay is described as follows: Kinetic assay with 5'-radiolabeled substrate. The assay is classed as biochemical, S. aureus. The following applies: 0.5 μM ribozyme, 200 μM GlcN6P, saturating substrate, 25° C. On the procedure: (§1) Low-throughput glmS kinetic analyses. All kinetic assays were conducted in 50 mM HEPES (pH 7.5 at 25° C.), 10 mM MgCl2, and 200 mM KCl. To initiate the reaction, GlcN6P was added to give a final concentration of 200 μM. Kinetic assays with radiolabeled substrate were performed as described previously (Soukup, Nucleic Acids Res 2006; 34: 968-975). Rate constants were established by plotting the natural logarithm of the fraction of substrate remaining uncleaved versus time, and then determining the negative slope of the resulting line. For the highest rate constants, only the initial phase of the plots were used because ˜20% of the RNA substrate remained uncleavable. Single reaction FRET-based kinetic assays were performed with λexcit=488 nm (slit width=1 nm), λemit=523 nm (slit width=8 nm).
Although the glmS ribozyme sequence is highly conserved among many bacterial species, the S. aureus sequence was chosen for screening development because of its clinical importance. To facilitate detection of cleavage, the natural self-cleaving glmS ribozyme was converted to a bimolecular ribozyme (FIG. 6B) in which separate substrate and ribozyme oligonucleotides associate via a truncated P1 stem. […]

The subject of assay [5] is bimolecular glmS ribozyme. Nature of the assay: Single reaction FRET-based kinetic assay of glmS cleavage. The assay is classed as biochemical, S. aureus. Particulars: 40 μM GlcN6P, within 20 minutes. On the procedure:
as §1, with “Single reaction FRET-based kinetic assays were performed with λexcit=488 nm (slit width=1 nm), λemit=523 nm (slit width=8 nm).” left out
To enable FRET detection of cleavage, the substrate was synthesized with a 5-(and 6-)-carboxyfluorescein (5/6-FAM) donor at the 3′ end and a Cy3™ acceptor at the 5′ end. […] When the substrate strand is intact, however, the fluorescence of 5/6-FAM is reduced presumably due to quenching by the proximal Cy3™ acceptor. After addition of GlcN6P and cleavage of the substrate strand, the two product strands dissociate, relieving the proximity of 5/6-FAM and Cy3™, with a concomitant increase of 5/6-FAM fluorescence. Similar fluorescence-based systems have been used to detect ribozyme cleavage in real time (Singh et al., RNA 1999; 5: 1348-1356; Hanne et al., Nucleosides Nucleotides 1998; 17: 1835-1850). […]

The test system of assay [6] is bimolecular glmS ribozyme. The assay is described as follows: High-throughput glmS assay, FRET in 384-well plates (Example 2). Particulars: for relative fluorescence (relative to time zero): 200 μM. Type of assay: biochemical, S. aureus. On the procedure: High-throughput glmS assay. High-throughput fluorescence assay validation and screening was performed in 384-well black polypropylene plates (Corning part number 3677) in a 10 μL solution of 50 mM HEPES (pH 7.5 at 25° C.), 10 mM MgCl2, and 200 mM KCl, with 0.01% SDS where indicated in the text. A Tecan Aquarius multichannel pipettor (Tecan Group, LTD, Switzerland) was used for automated liquid handling. In a typical experiment, a reaction mixture containing buffer and both RNA domains was transferred into the assay plates with the liquid handler, the fluorescence was measured, and the reaction was initiated by the addition of ˜50 nl of either GlcN6P, an analog of GlcN6P, or a library compound suspended at 10 mM in DMSO using the Tecan pin tool (˜50 μM final concentration of compound). Plates were sealed with non-breathable sealing tape and protected from light for the specified incubation time, at which point the plate was briefly centrifuged and the fluorescence measured. All multiplate fluorescence measurements were conducted with a Wallach Envision (Perkin Elmer, Wellesly, Mass.) plate reader with a 480 nm excitation filter (30 nm bandwidth) and a 535 nm emission filter (25 nm bandwidth).
To enable FRET detection of cleavage, the substrate was synthesized with a 5-(and 6-)-carboxyfluorescein (5/6-FAM) donor at the 3′ end and a Cy3™ acceptor at the 5′ end. When excited at 485 nm, the 5/6-FAM donor normally emits at a maximum wavelength of 526 nm. When the substrate strand is intact, however, the fluorescence of 5/6-FAM is reduced presumably due to quenching by the proximal Cy3™ acceptor. After addition of GlcN6P and cleavage of the substrate strand, the two product strands dissociate, relieving the proximity of 5/6-FAM and Cy3™, with a concomitant increase of 5/6-FAM fluorescence. Similar fluorescence-based systems have been used to detect ribozyme cleavage in real time (Singh et al., RNA 1999; 5: 1348-1356; Hanne et al., Nucleosides Nucleotides 1998; 17: 1835-1850). Using this FRET detection strategy, the addition of 40 μM GlcN6P induces an increase in the fluorescence signal of greater than 6 fold within 20 minutes (FIG. 7B). The modest burst in fluorescence increase could be due to a conformational change in the substrate that occurs upon ligand binding. Tertiary contacts between ribozyme and substrate would constrain the substrate to a greater extent compared to that caused by the short base paired region, thus increasing the average distance between donor and acceptor. Importantly, no fluorescence increase was observed over this time course in the absence of either GlcN6P or the ribozyme.
To facilitate rapid solution-based measurement of cleavage for large compound libraries, the assay conditions were optimized for automated liquid handling and fluorescence measurement in 384-well microplates. To reduce demand for enzyme and substrate RNAs, the concentrations of these molecules were varied to determine the minimal concentration of each that can be used to give a reproducible and statistically significant increase in the fluorescent signal. At 10 nM of each strand, a 4-fold increase in fluorescence was observed after 68 hours when 100 μM GlcN6P was present (FIG. 7C). […] At incubation times less than 48 hours, the increase in fluorescence was noticeably less, most likely because the concentration of the two RNA strands is well below the measured dissociation constant of 0.2 μM, slowing the observed cleavage rate. […]

For assay [7], the system named is glmS riboswitch. The following applies: cited from earlier work.
Assay [8] concerns unimolecular glmS ribozyme. Particulars: cited from earlier work.
For assay [9], the system named is glmS ribozyme. The assay is described as follows: PAGE / electrophoretic analysis of glmS ribozyme activation. Type of assay: biochemical, S. aureus. The following applies: after incubating for 2 hours. The protocol:
This cutoff for functional compounds (“hits”) of 2.5-fold increased fluorescence represents a statistically significant 18 standard deviations over the mean fluorescence value in the absence of ligand (“NL”). […] A similar case exists for glucosamine, which induces a 3.0-fold increase in fluorescence after 44 hours, even though its measured affinity for the ribozyme is more than 100-fold lower than GlcN6P (McCarthy et al., Chem Biol 2005; 12: 1221-1226). Thus, the fluorescent report from the high-throughput screen accurately reflects binding activity for the glmS ribozyme.
Each of the five compounds identified was retested for glmS activation with either the fluorescence screen or by electrophoretic methods. […] Moreover, these types of infrequent false-positive hits have been observed for other fluorescence-based high-throughput screens (Zhang et al., J Biomol Screen 2005; 10: 695-704) and can readily be confirmed or refuted in our case with the secondary ribozyme cleavage assay (Soukup and Breaker, RNA 1999; 5: 1308-1325). One possible explanation for the false positives is that they quench or otherwise modify the fluorescent label on the RNA over the 44 hour time course, or that the compounds become fluorescent over time. Nevertheless, the identification of glucosamine confirms that this screen can identify even low affinity glmS-activating compounds from complex compound libraries.

As for `CC(=O)N[C@H]1C(O)O[C@H](COP(=O)(O)O)[C@@H](O)[C@@H]1O` (some centres unmarked) [AcNGln 6P], the “Fl21 h/Flg h” value in assay [1] is listed as 2.28. Further, the “Activity by electrophoretic in-line probing” value in assay [2] was “Weakly”.
On to `Cc1cc2nc3c(=O)[nH]c(=O)nc-3n(C[C@H](O)[C@H](O)[C@H](O)COP(=O)(O)O)c2cc1C` [FMN, flavin mononucleotide], for which, in [3] (read-out: apparent KD), the Kd is ~0.005 µM.
Regarding `O=P(O)(O)OC[C@H]1OC(O)[C@H](O)[C@@H](O)[C@H]1O` (some centres unmarked) [Gal6P], the “Fl21 h/Flg h” value in assay [1] was found to be 1.69.
Regarding `N[C@@H]1[C@@H](O)[C@H](O)[C@@H](COP(=O)(O)O)O[C@@H]1O` [Gln6P com], in assay [1], the “Fl21 h/Flg h” value amounted to 2.24. For the same molecule, the “Activity by electrophoretic in-line probing” value in assay [2] was “Yes”.
Consider `N[C@H]1C(O)O[C@H](COP(=O)(O)O)[C@@H](O)[C@@H]1O` (some centres unmarked) [Gln6P, glucosamine-6-phosphate], for which the “apparent rate constant of cleavage” value in assay [4] came to 0.25 min⁻¹. The “increase in the fluorescence signal” value in [5] is “greater than 6 fold”. Further, the increase in fluorescence amounted to 4 fold in assay [6] (10 nM of each strand, 100 μM GlcN6P, after 68 hours, 0.01% SDS) and 3.5 fold in assay [6] (screen of library of twelve GlcN6P analogs). The figures for the “relative fluorescence (relative to time zero)” value in assay [6] (21 hours) and in [6] (44 hours) were 3.5 and 3.4, respectively. In assay [7] (concentrations as low as), the “concentration that activates cleavage” value was ≥ 1 µM. Moreover, the single-turnover rate constant in [7] (previously reported) was 1 min⁻¹. Also, the Kd in assay [7] (read-out: apparent KD) was 200 µM. Moreover, in assay [1] (160 μM glucosamine-6-phosphate, minimum of 10 hours incubation), the “increase in fluorescence intensity of Fl” value is ~4 fold. In [1], the “Fl21 h/Flg h” value is given as 3.36. In addition, in [2], the “Activity by electrophoretic in-line probing” value is “Yes”.
In the case of `N[C@H]1C(O)O[C@H](CO)[C@@H](O)[C@@H]1O` (some centres unmarked) [Gln com], in [1], the “Fl21 h/Flg h” value came out at 1.87. In addition, in [2], the “Activity by electrophoretic in-line probing” value is reported as “Yes”.
Consider `C[N+](C)(C)C1C(O)OC(COP(=O)(O)O)C(O)C1O` (centres unmarked) [Me3N-Gln 6P], for which the “Fl21 h/Flg h” value in assay [1] is listed as 1.27. Moreover, in assay [2], the “Activity by electrophoretic in-line probing” value is recorded as “No”.
On to `CNC1C(O)OC(COP(=O)(O)O)C(O)C1O` (centres unmarked) [MeN-Gln 6P], for which the “Fl21 h/Flg h” value in [1] turned out to be 3.49. Moreover, the “Activity by electrophoretic in-line probing” value in assay [2] is recorded as “Yes”.
`N[C@H]1C(O)O[C@H](CO)[C@@H](O)[C@@H]1O` (some centres unmarked) [glucosamine]: the “activity in previously described glmS screen” value in assay [8] (after 30 minutes) is “no observable activity”. Besides, the “activation of the glmS ribozyme” value in [8] is recorded as “cannot activate it”. This molecule also had an increase in fluorescence in assay [6] (after 44 hours) of 3.0 fold. The “cleavage on a gel” value in [9] is listed as “stimulates detectable cleavage”.
On to `O=C[C@H](O)[C@@H](O)[C@H](O)[C@H](O)COP(=O)(O)O` [glucose-6-phosphate], for which the “activation of the glmS ribozyme” value in assay [8] was “cannot activate it”.
Take `Cc1cc2nc3c(=O)[nH]c(=O)nc-3n(C[C@H](O)[C@H](O)[C@H](O)CO)c2cc1C` [riboflavin]: the “discrimination against ligand relative to FMN” value in assay [3] was “approximately three orders of magnitude”.
Regarding `COC1OC(COP(=O)(O)O)C(O)C(O)C1N` (stereo not drawn) [β-MeO-Gln 6P], the “Fl21 h/Flg h” value in [1] is reported as 1.02. Moreover, the “Activity by electrophoretic in-line probing” value in [2] is reported as “No”.
